For one test, the target named is T1, rabbit E1 (Oryctolagus cuniculus, UniProt Q29504).
T1 construct: purchased Calbiochem 6620700
T1 sequence (Q29504 1-1058): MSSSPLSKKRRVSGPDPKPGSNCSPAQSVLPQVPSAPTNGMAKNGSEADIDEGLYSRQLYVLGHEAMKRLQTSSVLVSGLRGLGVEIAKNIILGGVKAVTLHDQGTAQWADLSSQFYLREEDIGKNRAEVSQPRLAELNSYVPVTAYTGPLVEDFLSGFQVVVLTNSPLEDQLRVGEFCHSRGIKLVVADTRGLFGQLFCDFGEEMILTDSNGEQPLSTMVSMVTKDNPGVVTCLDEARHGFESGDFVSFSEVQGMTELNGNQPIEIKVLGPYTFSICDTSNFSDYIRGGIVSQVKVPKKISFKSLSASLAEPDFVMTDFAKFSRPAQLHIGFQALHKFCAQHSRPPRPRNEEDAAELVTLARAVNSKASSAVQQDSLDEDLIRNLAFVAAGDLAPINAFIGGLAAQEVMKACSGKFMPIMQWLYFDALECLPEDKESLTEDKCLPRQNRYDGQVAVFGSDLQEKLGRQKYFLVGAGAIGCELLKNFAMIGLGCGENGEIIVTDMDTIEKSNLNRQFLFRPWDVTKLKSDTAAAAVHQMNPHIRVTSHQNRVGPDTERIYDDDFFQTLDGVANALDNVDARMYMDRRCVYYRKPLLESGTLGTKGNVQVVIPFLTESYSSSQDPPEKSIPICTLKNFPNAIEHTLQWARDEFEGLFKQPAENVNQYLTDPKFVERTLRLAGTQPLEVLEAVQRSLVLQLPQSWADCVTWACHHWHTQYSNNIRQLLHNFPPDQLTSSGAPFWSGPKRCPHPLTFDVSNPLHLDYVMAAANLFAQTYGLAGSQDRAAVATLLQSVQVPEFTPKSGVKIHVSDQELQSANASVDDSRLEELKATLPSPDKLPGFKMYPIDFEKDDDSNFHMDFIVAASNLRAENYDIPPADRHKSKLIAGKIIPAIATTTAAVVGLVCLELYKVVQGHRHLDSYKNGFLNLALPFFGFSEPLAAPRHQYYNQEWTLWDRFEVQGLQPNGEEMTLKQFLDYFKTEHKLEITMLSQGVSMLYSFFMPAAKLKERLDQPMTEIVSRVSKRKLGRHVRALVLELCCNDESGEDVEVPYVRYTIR
As to the kind of experiment: E1 only assay (thiol-ester linkage of ubiquitin with E1). The format is biochemical. Particulars: FIG. 2D. As to the method:
2 μl rabbit E1 +12 μl of 1× reaction buffer are mixed together with the test compound followed by addition of 1 μl of ^32P Ub is added for 10 minutes at room temperature followed by resolution by SDS-PAGE under non-reducing conditions to maintain thiol-ester linkages and exposure as above.

The target in the next test is T2, GST-UbcH5B (Homo sapiens, UniProt P62837).
T2 construct: made in house
Description: E1+E2 assay with immobilized E2 (thiol-ester linkage with E2). The format is biochemical. Particulars: FIG. 2E. On the procedure:
c. E1+E2 Assay with Immobilized E2
20 pmoles of bacterially-expressed GST-UbcH5B is bound to GS for 30 minutes at room temperature after washing in 50 mM Tris pH 7.5. Twenty (20) μl of 1× reaction buffer is added. After incubation with the test compound for 1 hour at 23° C. the beads were washed with 50 mM Tris pH 7.5. This was followed by addition of Rabbit E1/32P Ub cocktail (1 μl/1 μl) followed by incubation at 1 hour shaking at 23° C. This is followed by resolution by SDS-PAGE under non-reducing conditions and exposure as above.

Test [1] relates to Normal human fibroblast MRC-5. Description: Cell based assay for accumulation of MDM2 and p53 (immunoblot). Particulars: MRC-5 cells, 50 μM, 8 hours. On the procedure:
Methods: Normal human fibroblast MRC-5 were chosen to determine whether the compounds from the high throughput screening can inhibit the E3 activity of Mdm2, i.e. stabilizing MDM2 and p53 in vivo. After being seeded in 12-well tissue culture cluster overnight, the cells were treated with 50 μM of the compounds for 8 hours. They were harvested with trypsin-EDTA, washed with PBS, and lysed with RIPA buffer. Following removal of insoluble pellet by centrifugation for 20 minutes at 10000 rpm, the lysate was separated on 4-20% gradient SDS-polyacrylamide gel and transferred onto nitrocellulose membrane. The membrane was then blotted with anti-p53 antibody (DO-1), anti-MDM2 antibodies (Ab-1 and Ab-2), anti-p27 (Santa Cruz), anti-Nedd4, and anti-p21Waf1 antibody. After extensive washing with PBS containing 0.5% Triton X-100, it was incubated with HRP-labeled donkey anti-mouse antibody and visualized using enhanced chemiluminescence.

T2 sequence (P62837 whole entry): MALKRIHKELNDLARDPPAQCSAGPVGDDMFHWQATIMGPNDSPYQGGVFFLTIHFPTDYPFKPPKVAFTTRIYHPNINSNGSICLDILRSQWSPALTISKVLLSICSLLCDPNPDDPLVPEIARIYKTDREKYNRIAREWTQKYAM

Regarding `O=c1nc2n(-c3cccc(Cl)c3)c3ccc([N+](=O)[O-])cc3cc-2c(=O)[nH]1` [Compound 98C07, 10-(-3-chloro-phenyl)-7-nitro-10H-pyrimido[4,5-b]quinoline-2,4-dione], the “inhibition of thiol-ester linkage of ubiquitin with E1” value against rabbit E1 is reported as “inhibits neither thiol-ester linkages of ubiquitin with E1 nor E2”. Moreover, on GST-UbcH5B, the “inhibition of thiol-ester linkage of ubiquitin with E2” value is on record as “inhibits neither thiol-ester linkages of ubiquitin with E1 nor E2”. In addition, in test [1], the MDM2 level entry was “specifically increase MDM2 and p53”; the p53 level entry is “specifically increase MDM2 and p53”.

These data come from patent publication US7498336B2, “Deazaflavin compounds and methods of use thereof” (The United States of America as represented by the …, priority 2003, dated 2009).
